Data on eight molecules can be found in patent publication US11236112B2 (GENFLEET THERAPEUTICS (SHANGHAI) INC., priority 2017, dated 2022).

Where only a bound is given, the exact number is not on record here.

In one series the test system is liver cancer patients. The note with it: phase 2 clinical trial, after treatment; cited from earlier work.
The nature of series [1]: Solubility of different salt types in biological vehicle (SGF, FeSSIF, FaSSIF), HPLC. Type of series: physicochemical. The note with it: 37° C.; for pH value: supernatant. On the procedure: 1 ml of biological vehicle solution (FaSSIF, FeSSIF and SGF) was pipetted respectively into a 1.5-ml glass bottle, and then added to the above-mentioned solution at a gradient of 2 mg until 10 mg or the mixture was saturated. The mixture was prepared in 2 parts in parallel, and then shaken at 37° C. Samples were taken after 4 hours and 24 hours, respectively. The samples taken were centrifuged quickly, and the supernatant was measured for pH value and diluted with a diluent to a suitable multiple, and then the concentration was determined by HPLC.

Series [2] in a line: High-temperature stability test (60° C., open container). The format is physicochemical.
Series [3] is described as follows: High-humidity stability test (40° C./75% humidity, open). Type of series: physicochemical.
A short description of series [4]: Approximate solubility in pure water. The note with it: thermodynamic from solid, room temperature, 2 mg sample, read-out: Approximate solubility S. Type of series: physicochemical. As for the experimental part:
2 mg of the sample of each compound was weighed and added to a 1.5-ml glass vial, and a certain volume of pure water was added with a pipette, and ultrasonic solubilization was performed appropriately. The study was conducted at room temperature and tested for solubilization.

The target in a further series is T1, TGF-βRI (Homo sapiens, UniProt P36897).
T1 sequence (P36897 34-503): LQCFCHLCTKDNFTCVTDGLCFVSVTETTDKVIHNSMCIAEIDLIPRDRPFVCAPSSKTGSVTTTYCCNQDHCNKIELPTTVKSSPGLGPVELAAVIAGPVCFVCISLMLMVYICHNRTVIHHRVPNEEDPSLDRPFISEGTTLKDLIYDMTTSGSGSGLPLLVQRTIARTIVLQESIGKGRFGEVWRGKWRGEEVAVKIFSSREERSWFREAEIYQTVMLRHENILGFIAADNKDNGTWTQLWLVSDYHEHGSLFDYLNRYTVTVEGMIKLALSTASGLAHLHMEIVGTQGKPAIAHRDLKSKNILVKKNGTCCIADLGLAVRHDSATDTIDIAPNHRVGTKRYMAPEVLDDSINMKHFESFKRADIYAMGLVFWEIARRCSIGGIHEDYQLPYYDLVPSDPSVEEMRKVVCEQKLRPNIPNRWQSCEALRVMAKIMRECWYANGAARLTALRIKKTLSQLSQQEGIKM
The series is described as follows: TGFβ-RI receptor binding activity screening in vitro (enzyme activity, IC50).

A short description of series [5]: Hygroscopicity by dynamic vapor sorption (DVS). The note with it: 25° C./80% RH. The format is physicochemical. As for the experimental part: In the present invention, the dynamic vapor sorption (DVS) is determined by using the following method: instrument model: SMS DVS Advantage dynamic vapor sorption instrument
Test condition: place 10-15 mg of sample in a DVS sample disk for testing.
The detailed DVS parameters are as follows: […]
balance: dm/dt=0.01%/min (minimum: 10 min; maximum: 180 min) drying: dry for 120 min at 0% RH
RH (%) test step range: 0%-90%-0%
The classification of hygroscopicity evaluation is as follows:
1. Experimental material: SMS DVS Advantage dynamic vapor sorption instrument
2. Experimental method: an appropriate amount of the crystal form B of the compound of formula (II) was placed in a DVS sample disk for DVS analysis.

In the case of `Cc1cccc(-c2nn3c(c2-c2ccnc4ccc(C(N)=O)cc24)CCC3)n1` [LY2157299, Galunisertib], the “Patients with a decrease in serum alpha-fetoprotein (AFP) levels by at least 20%” value in the series on liver cancer patients is “approximately 23%”.

For `Cc1cccc(-c2nn3c(c2-c2ccc4ncnn4c2/C=C/C(N)=O)CCC3)n1.Cl` [Hydrochloride], the Concentration in series [1] (FaSSIF, 4 hours) is 4378 µg/mL; in series [1] (FaSSIF, 24 hours) it was 4195 µg/mL; in series [1] (FeSSIF, 4 hours) it was 1028 µg/mL; in series [1] (FeSSIF, 24 hours) it was 1065 µg/mL; in series [1] (SGF, 4 hours), 4343 µg/mL; in series [1] (SGF, 24 hours) it was 4427 µg/mL. In addition, the State entry in series [1] (FaSSIF, 4 hours) is “soluble”; in series [1] (FaSSIF, 24 hours), “soluble”; in series [1] (FeSSIF, 4 hours), “turbid”; in series [1] (FeSSIF, 24 hours), “turbid”; in series [1] (SGF, 4 hours), “soluble”; in series [1] (SGF, 24 hours), “soluble”. Besides, the pH value in series [1] (FaSSIF, 4 hours) is reported as 3.96; in series [1] (FaSSIF, 24 hours), 3.97; in series [1] (FeSSIF, 4 hours), 4.52; in series [1] (FeSSIF, 24 hours), 4.52; in series [1] (SGF, 4 hours), 2.04; in series [1] (SGF, 24 hours), 2.05.

Turning to `Cc1cccc(-c2nn3c(c2-c2ccc4ncnn4c2/C=C/C(N)=O)CCC3)n1` [Sulphate], the Concentration in series [1] (FaSSIF, 4 hours) is 4998 µg/mL; in series [1] (FaSSIF, 24 hours), 5000 µg/mL; in series [1] (FeSSIF, 4 hours) it was 1530 µg/mL; in series [1] (FeSSIF, 24 hours) it was 1504 µg/mL; in series [1] (SGF, 4 hours), 4885 µg/mL; in series [1] (SGF, 24 hours) it was 4952 µg/mL. The State entry in series [1] (FaSSIF, 4 hours) is “soluble”; in series [1] (FaSSIF, 24 hours) it was “soluble”; in series [1] (FeSSIF, 4 hours), “turbid”; in series [1] (FeSSIF, 24 hours) it was “turbid”; in series [1] (SGF, 4 hours), “soluble”; in series [1] (SGF, 24 hours), “soluble”. For the same molecule, the pH value in series [1] (FaSSIF, 4 hours) was found to be 2.44; in series [1] (FaSSIF, 24 hours), 2.50; in series [1] (FeSSIF, 4 hours), 4.22; in series [1] (FeSSIF, 24 hours), 4.21; in series [1] (SGF, 4 hours), 1.77; in series [1] (SGF, 24 hours) it was 1.84.

Turning to `CS(=O)(=O)O.Cc1cccc(-c2nn3c(c2-c2ccc4ncnn4c2/C=C/C(N)=O)CCC3)n1`, the Concentration in series [1] (FaSSIF, 4 hours) was found to be 5159 µg/mL; in series [1] (FaSSIF, 24 hours) it was 3704 µg/mL; in series [1] (FeSSIF, 4 hours), 852 µg/mL; in series [1] (FeSSIF, 24 hours), 925 µg/mL; in series [1] (SGF, 4 hours), 5103 µg/mL; in series [1] (SGF, 24 hours) it was 5163 µg/mL. The State entry in series [1] (FaSSIF, 4 hours) is “soluble”; in series [1] (FaSSIF, 24 hours) it was “turbid”; in series [1] (FeSSIF, 4 hours) it was “turbid”; in series [1] (FeSSIF, 24 hours), “turbid”; in series [1] (SGF, 4 hours) it was “soluble”; in series [1] (SGF, 24 hours) it was “soluble”. For the same molecule, the pH value in series [1] (FaSSIF, 4 hours) was determined as 4.16; in series [1] (FaSSIF, 24 hours), 3.71; in series [1] (FeSSIF, 4 hours) it was 4.58; in series [1] (FeSSIF, 24 hours) it was 4.60; in series [1] (SGF, 4 hours), 2.08; in series [1] (SGF, 24 hours), 2.14.

On to `Cc1cccc(-c2nn3c(c2-c2ccc4ncnn4c2/C=C/C(N)=O)CCC3)n1`, for which the Content in series [2] (day 0) was determined as 99.0%; in series [2] (day 30), 97.5%; in series [2] (day 60), 100.0%; in series [2] (day 90), 99.9%; in series [3] (day 0), 99.0%; in series [3] (day 30), 100.6%. Besides, the results for the Content in series [3] (day 60) and in series [3] (day 90) were 101.1% and 100.4%, respectively. The “Study on crystal form” value in series [2] (day 0), in series [2] (day 30), in series [2] (day 60) and in series [2] (day 90) was “Crystal form A” in each case. The Total impurities in series [2] (day 0) came out at 0.57%; in series [2] (day 30) it was 0.56%; in series [2] (day 60), 0.58%; in series [2] (day 90) it was 0.55%; in series [3] (day 0) it was 0.57%; in series [3] (day 30), 0.57%. In addition, the Total impurities in series [3] (day 60) and in series [3] (day 90) was 0.58% each time. Besides, in series [2] (up to 90 days), the “Stability under high temperature conditions (conclusion)” value is listed as “Conclusion: The high-temperature stability test shows that crystal form A of the compound of formula (I) has good stability under high temperature conditions”. Further, the “Stability under high humidity conditions (conclusion)” value in series [3] (up to 90 days) is reported as “Conclusion: The high-humidity stability test shows that the crystal form A of the compound of formula (I) has good stability under high humidity conditions”.

The term solubility denotes how much of the substance goes into solution per volume. Usually IC50 stands for the concentration needed to halve the response being measured. With `Cc1cccc(-c2nn3c(c2-c2ccc4ncnn4c2/C=C/C(N)=O)CCC3)n1` [Compound of formula (I)], the solubility in series [4] is less than 1.9 mg/mL. The same molecule yielded an IC50 at TGF-βRI of 40 nM. The Concentration in series [1] (FaSSIF, 4 hours) was determined as 352 µg/mL; in series [1] (FaSSIF, 24 hours), 421 µg/mL; in series [1] (FeSSIF, 4 hours), 565 µg/mL; in series [1] (FeSSIF, 24 hours), 637 µg/mL; in series [1] (SGF, 4 hours) it was 1997 µg/mL; in series [1] (SGF, 24 hours), 1994 µg/mL. The State entry in series [1] (FaSSIF, 4 hours) was “turbid”; in series [1] (FaSSIF, 24 hours), “turbid”; in series [1] (FeSSIF, 4 hours), “turbid”; in series [1] (FeSSIF, 24 hours), “turbid”; in series [1] (SGF, 4 hours) it was “soluble”; in series [1] (SGF, 24 hours) it was “soluble”. Besides, the pH value came out at 6.45 in series [1] (FaSSIF, 4 hours); 6.42 in series [1] (FaSSIF, 24 hours); 4.97 in series [1] (FeSSIF, 4 hours); 4.95 in series [1] (FeSSIF, 24 hours); 2.37 in series [1] (SGF, 4 hours); 2.43 in series [1] (SGF, 24 hours).

Regarding `Cc1ccc(S(=O)(=O)O)cc1.Cc1cccc(-c2nn3c(c2-c2ccc4ncnn4c2/C=C/C(N)=O)CCC3)n1`, in series [5], the Classification of hygroscopicity entry is “slightly hygroscopic” and the “Hygroscopic weight gain ΔW” value was 0.673%.

For the molecule `Cc1ccc(S(=O)(=O)O)cc1.Cc1cccc(-c2nn3c(c2-c2ccc4ncnn4c2/C=C/C(N)=O)CCC3)n1` [Compound of formula (II)], the solubility in series [4] lay in the range of 49 to 98 mg/mL. Besides, the Concentration is 10150 µg/mL in series [1] (FaSSIF, 4 hours); 10720 µg/mL in series [1] (FaSSIF, 24 hours); 10840 µg/mL in series [1] (FeSSIF, 4 hours); 10580 µg/mL in series [1] (FeSSIF, 24 hours); 1610 µg/mL in series [1] (SGF, 4 hours); 1470 µg/mL in series [1] (SGF, 24 hours). Moreover, the State result in series [1] (FaSSIF, 4 hours) was “clear”; in series [1] (FaSSIF, 24 hours), “clear”; in series [1] (FeSSIF, 4 hours), “clear”; in series [1] (FeSSIF, 24 hours) it was “clear”; in series [1] (SGF, 4 hours), “Suspension”; in series [1] (SGF, 24 hours) it was “Suspension”. In addition, the pH value in series [1] (FaSSIF, 4 hours) was found to be 3.15; in series [1] (FaSSIF, 24 hours), 3.13; in series [1] (FeSSIF, 4 hours), 1.89; in series [1] (FeSSIF, 24 hours), 1.87; in series [1] (SGF, 4 hours), 3.45; in series [1] (SGF, 24 hours), 4.26.
